{
  "source": "patent US5360790A",
  "about": "“Method and formulations for the therapy of acute renal failure” (The Regents of the University of Michigan, priority 1993, dated 1994)",
  "type_in_all_cases": "in vivo, rat",
  "key": {"[1]": {"tested_on": "Sprague Dawley rats", "experiment": "BUN and serum creatinine time course after renal ischemia", "conditions": "single dose EGF within 1-1.5 hours of reperfusion after 30 minutes bilateral renal ischemia; entire 7-day period", "experimental": "(§1) Sprague Dawley rats (250-325 g) were anesthetized with a short-acting barbiturate, the abdominal cavity was exposed, and both left and right renal arteries were identified and clamped for 30 minutes. The clamps were released and perfusion to the kidneys reestablished. At time intervals of 24, 48, and 72 hours after ischemia and reperfusion, ^3 H-thymidine incorporation into kidneys, as well as blood urea nitrogen (BUN) and serum creatinine levels. To obtain a complete time course, some animals were allowed to recover for 7 days after renal ischemia and blood samples were then obtained daily for BUN or serum creatinine measurements.\n(§2) This dose of EGF is substantially lower than those employed in previously reported studies that administered EGF systemically. At varying time points after reperfusion, measurements of ^3 H-thymidine incorporation into the kidneys and BUN, and serum creatinine levels were determined."}, "[2]": {"tested_on": "Male Sprague-Dawley rats", "experiment": "BUN and serum creatinine time course after HgCl2 (nephrotoxic acute renal failure)", "experimental": "(§3) At time intervals of 24, 30, 48, and 72 hours after toxin administration, [^3 H] thymidine incorporation into renal cortex, as well as blood urea nitrogen (BUN) and serum creatinine levels, were determined with methods known and practiced in the art. To obtain a complete time course for the BUN and serum creatinine levels, some animals were allowed to recover for as long as 12 days after HgCl2 administration, and blood samples were obtained daily for BUN and serum creatinine levels."}, "[3]": {"tested_on": "renal tubule cells", "experiment": "3H-thymidine incorporation into kidneys after bilateral renal artery clamping (ischemic acute renal failure)", "experimental": "as §1, §2"}, "[4]": {"tested_on": "renal tubule cells", "experiment": "[3H] thymidine incorporation into renal cortex after HgCl2 (nephrotoxic acute renal failure)", "conditions": "for [3H] Thymidine Incorporation: EGF 20 μg sc 2-4 h after nephrotoxin", "experimental": "as §3"}, "[5]": {"tested_on": "renal tubule cells", "experiment": "Histoautoradiography of [3H] thymidine labeled kidney cells after HgCl2", "experimental": "as §3\nHistoautoradiographic studies were performed to determine the type of cells labeled with [^3 H] thymidine after HgCl2 exposure. Kidney sections from rats at 48 or 72 h after toxic administration were used for histoautoradiographic analysis. Labeling was confined to the nuclei. On average, 97.9% of the labeled cells were tubule cells, and 2.1% of the labeled cells were interstitial cells in the 60 examined fields. In control rats undergoing sham injection, 98.4% of labeled cells were tubule, and 1.6% were interstitial in 90 examined fields."}, "[6]": {"tested_on": "renal tubule cells", "experiment": "Histoautoradiography of 3H-thymidine labeled kidney cells after renal ischemia", "text": "To localize and identify the cells incorporating the radiolabeled thymidine within the kidney, histoautoradiography of kidney samples was also accomplished. For quantitative evaluation, a computerized operator-interactive system was used. Sections were examined at 276 magnification, and 10-15 fields were counted in the cortex and outer and inner stripes of the outer medulla in each section for an individual animal. The cell type of the labeled cells was identified as either tubular or interstitial.\nAt varying time points after reperfusion, measurements of ^3 H-thymidine incorporation into the kidneys and BUN, and serum creatinine levels were determined."}, "[7]": {"tested_on": "Male Sprague-Dawley rats", "experiment": "Histological score of tubule cell injury after HgCl2", "conditions": "24 h after HgCl2; n=120 fields from 3 animals; P=NS vs non-EGF-treated", "experimental": "Histological grading was assessed at 24 h, a time at which the peak of HgCl2 -induced toxic renal injury occurs and just before the accelerated regeneration repair phase. At 24 h, the mean histological scores in the inner cortex and outer stripe were 2.92±0.13 and 4.70±0.07, respectively, in the nephrotoxic non-EGF-treated rats vs. scores of 3.25±0.18 and 4.65±0.08, respectively, in the nephrotoxic EGF-treated rats (n=120 fields from 3 animals in each treatment group, P=NS for both scores). At 24 h after HgCl2, extensive necrosis was present in proximal tubule segments with no difference in the degree of tubule cell necrosis observed histologically between the EGF-treated and nontreated groups receiving HgCl2."}, "[8]": {"conditions": "peak at 3 days after HgCl2 injection, EGF 20 μg sc, P<0.001 vs nontreated"}, "[9]": {"conditions": "EGF-treated rats, 48 h after HgCl2 injection, 60 fields"}, "[10]": {"conditions": "EGF-treated postischemic rats at 24 hours"}, "[11]": {"conditions": "postischemic kidneys at 24 hours after EGF administration"}},
  "data": [
    {"substance": "epidermal growth factor [EGF]", "values": [
      {"measurement": "BUN levels of EGF-treated animals", "setting": "[1]", "value": "significantly lower"},
      {"measurement": "creatinine levels of EGF-treated animals", "setting": "[1]", "value": "significantly lower"},
      {"measurement": "return to near normal BUN and serum creatinine, earlier than in non-EGF-treated animals", "setting": "[2]; after HgCl2", "value": 4, "unit": "days"},
      {"measurement": "return to near normal BUN and serum creatinine levels", "setting": "[2]; day after HgCl2 administration", "value": 8, "unit": "days"},
      {"measurement": "peak BUN level", "setting": "[2]; [8]", "value": "213 ± 23", "unit": "mg/dL"},
      {"measurement": "peak serum creatinine level", "setting": "[2]; [8]", "value": "6.54 ± 0.72", "unit": "mg/dL"},
      {"measurement": "3H-thymidine incorporation, sham ischemia", "setting": "[3]; EGF treatment of rats undergoing sham ischemia, P=NS, n=3", "value": "did not show any increase"},
      {"measurement": "renal thymidine incorporation compared with control nontreated ischemia values", "setting": "[3]; single dose EGF 1-1.5 hours after reperfusion, 24, 48, 72 hours of reperfusion after 30 minutes bilateral renal artery clamping", "value": "significantly increased renal thymidine incorporation"},
      {"measurement": "[3H] Thymidine Incorporation", "setting": "[4]; 0 h, rats given 5 mg/kg HgCl2, mean (SE 0.03 printed)", "value": 0.12, "unit": "dpm × 10^4 /mg DNA"},
      {"measurement": "[3H] Thymidine Incorporation", "setting": "[4]; 24 h after 5 mg/kg HgCl2, mean (SE 1.28 printed)", "value": 13.81, "unit": "dpm × 10^4 /mg DNA"},
      {"measurement": "[3H] Thymidine Incorporation", "setting": "[4]; 48 h after 5 mg/kg HgCl2, mean (SE 19.52 printed)", "value": 80.52, "unit": "dpm × 10^4 /mg DNA"},
      {"measurement": "[3H] Thymidine Incorporation", "setting": "[4]; 72 h after 5 mg/kg HgCl2, mean (SE 13.80 printed)", "value": 116.24, "unit": "dpm × 10^4 /mg DNA"},
      {"measurement": "renal thymidine incorporation compared with non-EGF-treated animals receiving the nephrotoxin", "setting": "[4]; single dose EGF 2 or 4 h after HgCl2, at 24, 30, 48 and 72 h", "value": "higher rates of renal thymidine incorporation"},
      {"measurement": "number of tubule cells incorporating [3H] thymidine", "setting": "[5]; 24 h after HgCl2, renal cortex and outer medulla, n=3 rats and 60 fields, P<0.02 vs nontreated", "value": "7.5±1.8", "unit": "labeled cells/field"},
      {"measurement": "number of labeled tubule cells", "setting": "[5]; 48 h after HgCl2, renal cortex and outer medulla, n=3 rats and 60 fields", "value": "20.9±2.1", "unit": "cells/field"},
      {"measurement": "labeled cells identified as interstitial cells", "setting": "[5]; [9]", "value": 3.7, "unit": "%"},
      {"measurement": "labeled cells identified as tubule", "setting": "[5]; [9]", "value": 96.3, "unit": "%"},
      {"measurement": "labeled cells identified as interstitial cells", "setting": "[6]; [10]", "value": 1.9, "unit": "%"},
      {"measurement": "labeled cells identified as tubule", "setting": "[6]; [10]", "value": 98.1, "unit": "%"},
      {"measurement": "labeled interstitial cells, absolute number", "setting": "[6]; [10]", "value": 61},
      {"measurement": "labeled tubule cells, absolute number", "setting": "[6]; [10]", "value": "3,183"},
      {"measurement": "distribution of labeled tubule cells: cortex", "setting": "[6]; [11]", "value": 27, "unit": "%"},
      {"measurement": "distribution of labeled tubule cells: outer stripe of the outer medulla", "setting": "[6]; [11]", "value": 68, "unit": "%"},
      {"measurement": "mean histological score, inner cortex", "setting": "[7]", "value": "3.25±0.18"},
      {"measurement": "mean histological score, outer stripe", "setting": "[7]", "value": "4.65±0.08"}
    ]}
  ]
}
